The values below come from US20250041236A1, “METHOD FOR SYNTHESIZING GINSENOSIDE RG3-LOADED NANONIOSOMES” (priority 2024, published 2025).

A short description of this data set: In vitro release of Rg3 by the dialysis method. The format is physicochemical. The note with it: after 24 hours, PBS pH 7.4, 37° C. The procedure:
To estimate the Rg3-loaded nanoniosome's in vitro drug release profile, 1 mL of the formulation was placed inside a dialysis bag and then immersed in a PBS solution (maintained at 37° C. and a pH of 7.4) with constant stirring. The PBS solution surrounding the dialysis bag (which contained released Rg3) was extracted at different time intervals for 24 hours, and the absorbance intensity was measured at 203 nm. The quantity of Rg3 measured in the medium is divided by the starting amount of Rg3 in the formulation to determine the amount of Rg3 released.

For `CC(C)=CCC[C@](C)(O)[C@H]1CC[C@]2(C)[C@@H]1[C@H](O)C[C@@H]1[C@@]3(C)CC[C@H](O[C@@H]4O[C@H](CO)[C@@H](O)[C@H](O)[C@H]4O[C@@H]4O[C@H](CO)[C@@H](O)[C@H](O)[C@H]4O)C(C)(C)[C@@H]3CC[C@]12C` [Ginsenoside Rg3], the “release of the loaded drug” value was found to be 24.78%.
